Measured values taken from patent US10202361B2, “Pyridazinones as herbicides” (E I DU PONT DE NEMOURS AND COMPANY, priority 2014, dated 2019).
Like-named read-outs stand apart in the source and are kept apart here.

What was measured:
Assay in all cases: Test C pre-/postemergence greenhouse herbicide test
Format in all cases: in vivo
[1] = tested on: crabgrass, Large (large crabgrass, Digitaria sanguinalis); conditions: Digitaria sanguinalis, Crabgrass, Large, read-out: Plant response rating; for pest or weed control at 31 g/ha: 31 g ai/ha; for pest or weed control at 62 g/ha: 62 g ai/ha; for pest or weed control at 125 g/ha: 125 g ai/ha; for pest or weed control at 250 g/ha: 250 g ai/ha
How it was run: (§1)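 Visual ratings, 0 = no effect, 100 = complete control, vs untreated controls at 13–15 d. Pre: seeds in loam/sand. Post: 2–18 cm plants (1–4 leaf), peat/vermiculite mix. Surfactant-containing solvent formulation; greenhouse.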

[2] = tested on: ragweed (common ragweed, Ambrosia elatior); conditions: Ambrosia artemisiifolia, Ragweed, read-out: Plant response rating; for pest or weed control at 31 g/ha: 31 g ai/ha; for pest or weed control at 62 g/ha: 62 g ai/ha; for pest or weed control at 125 g/ha: 125 g ai/ha
How it was run: as §1

[3] = tested on: nutsedge, yellow (yellow nutsedge, Cyperus esculentus); conditions: Cyperus, Nutsedge, Yellow, read-out: Plant response rating; for pest or weed control at 31 g/ha: 31 g ai/ha; for pest or weed control at 62 g/ha: 62 g ai/ha; for pest or weed control at 125 g/ha: 125 g ai/ha
How it was run: as §1

[4] = tested on: oat, wild (wild oat, Avena fatua); conditions: Postemergence
How it was run: as §1

[5] = tested on: barnyardgrass (Echinochloa crus-galli); conditions: Barnyardgrass
How it was run: as §1

[6] = tested on: wheat (winter wheat, Triticum aestivum); conditions: Triticum aestivum, Wheat, read-out: Plant response rating; for plant injury at 62 g/ha: 62 g ai/ha; for plant injury at 125 g/ha: 125 g ai/ha; for plant injury at 250 g/ha: 250 g ai/ha
How it was run: as §1

[7] = tested on: waterhemp (common waterhemp, Amaranthus rudis); conditions: Waterhemp
How it was run: as §1

corn (Zea mays) = conditions: Zea mays, Corn, read-out: Plant response rating; for plant injury at 62 g/ha: 62 g ai/ha; for plant injury at 125 g/ha: 125 g ai/ha; for plant injury at 250 g/ha: 250 g ai/ha
How it was run: as §1

[8] = tested on: blackgrass (Alopecurus myosuroides); conditions: Alopecurus myosuroides, Blackgrass, read-out: Plant response rating; for pest or weed control at 31 g/ha: 31 g ai/ha; for pest or weed control at 62 g/ha: 62 g ai/ha; for pest or weed control at 125 g/ha: 125 g ai/ha; for pest or weed control at 250 g/ha: 250 g ai/ha
How it was run: as §1

[9] = tested on: pigweed (Amaranthus retroflexus); conditions: Amaranthus retroflexus, Pigweed, read-out: Plant response rating; for pest or weed control at 62 g/ha: 62 g ai/ha; for pest or weed control at 125 g/ha: 125 g ai/ha; for pest or weed control at 250 g/ha: 250 g ai/ha
How it was run: as §1

[10] = tested on: lambsquarters (Chenopodium album)
How it was run: as §1

[11] = tested on: johnsongrass (Sorghum halepense); conditions: Sorghum halepense, Johnsongrass, read-out: Plant response rating; for pest or weed control at 31 g/ha: 31 g ai/ha; for pest or weed control at 62 g/ha: 62 g ai/ha; for pest or weed control at 125 g/ha: 125 g ai/ha; for pest or weed control at 250 g/ha: 250 g ai/ha
How it was run: as §1

[12] = pre-emergence, Preemergence, 31 g ai/ha

Cc1cc(=O)n(-c2ccc(C(F)(F)F)cc2)nc1Cc1ccnc(C(F)(F)F)c1 [Compound 2, 5-methyl-2-[4-(trifluoromethyl)phenyl]-6-[[2-(trifluoromethyl)-4-pyridinyl]methyl]-3(2H)-pyridazinone] gave a pest or weed control at 31 g/ha ([1]; post-emergence, Postemergence) of 5%, a pest or weed control at 62 g/ha ([1]; post-emergence, Postemergence) of 5% and a pest or weed control at 125 g/ha ([1]; post-emergence, Postemergence) of 15%. The pest or weed control at 250 g/ha ([1]; post-emergence, Postemergence) was 35%, the pest or weed control at 31 g/ha ([1]; pre-emergence, Preemergence) was 75% and the pest or weed control at 62 g/ha ([1]; pre-emergence, Preemergence) was 80%. It also gave a pest or weed control at 125 g/ha ([1]; pre-emergence, Preemergence) of 100%, a pest or weed control at 250 g/ha ([1]; pre-emergence, Preemergence) of 100% and a pest or weed control at 31 g/ha ([2]; post-emergence, Postemergence) of 25%. For the same compound, the pest or weed control at 62 g/ha ([2]; post-emergence, Postemergence) was 60%, the pest or weed control at 125 g/ha ([2]; post-emergence, Postemergence) was 60% and the pest or weed control at 31 g/ha ([2]; pre-emergence, Preemergence) was 15%. The pest or weed control at 62 g/ha ([2]; pre-emergence, Preemergence) was 60%, the pest or weed control at 125 g/ha ([2]; pre-emergence, Preemergence) was 60% and the pest or weed control at 250 g/ha ([2]; pre-emergence, Preemergence, 250 g ai/ha) was 60%. The pest or weed control at 31 g/ha ([3]; post-emergence, Postemergence) was 5%, the pest or weed control at 62 g/ha ([3]; post-emergence, Postemergence) was 5% and the pest or weed control at 125 g/ha ([3]; post-emergence, Postemergence) was 5%. For the same compound, the pest or weed control at 250 g/ha ([3]; post-emergence, Postemergence, 250 g ai/ha) was 10%, the pest or weed control at 31 g/ha ([3]; pre-emergence, Preemergence) was 10% and the pest or weed control at 62 g/ha ([3]; pre-emergence, Preemergence) was 25%. It also gave a pest or weed control at 125 g/ha ([3]; pre-emergence, Preemergence) of 35%, a Plant response rating ([4]; 31 g ai/ha) of 5 and a Plant response rating ([4]; 62 g ai/ha) of 5. It also gave a Plant response rating ([4]; 125 g ai/ha) of 5, a Plant response rating ([4]; 250 g ai/ha) of 5 and a Plant response rating ([5]; Postemergence, 31 g ai/ha) of 5. For the same compound, the Plant response rating ([5]; Postemergence, 62 g ai/ha) was 10, the Plant response rating ([5]; Postemergence, 125 g ai/ha) was 10 and the Plant response rating ([5]; Postemergence, 250 g ai/ha) was 25. For the same compound, the Plant response rating ([5]; Preemergence, 31 g ai/ha) was 65, the Plant response rating ([5]; Preemergence, 62 g ai/ha) was 70 and the Plant response rating ([5]; Preemergence, 125 g ai/ha) was 90. The Plant response rating ([5]; Preemergence, 250 g ai/ha) was 98, the plant injury at 31 g/ha ([6]; post-emergence, Postemergence, 31 g ai/ha) was 5% and the plant injury at 62 g/ha ([6]; post-emergence, Postemergence) was 5%. For the same compound, the plant injury at 125 g/ha ([6]; post-emergence, Postemergence) was 5%, the plant injury at 250 g/ha ([6]; post-emergence, Postemergence) was 5% and the plant injury at 62 g/ha ([6]; pre-emergence, Preemergence) was 0%. It also gave a plant injury at 125 g/ha ([6]; pre-emergence, Preemergence) of 10%, a plant injury at 250 g/ha ([6]; pre-emergence, Preemergence) of 30% and a Plant response rating ([7]; Postemergence, 31 g ai/ha) of 75. The Plant response rating ([7]; Postemergence, 62 g ai/ha) was 75, the Plant response rating ([7]; Postemergence, 125 g ai/ha) was 75 and the Plant response rating ([7]; Postemergence, 250 g ai/ha) was 80. For the same compound, the Plant response rating ([7]; Preemergence, 62 g ai/ha) was 100, the Plant response rating ([7]; Preemergence, 125 g ai/ha) was 100 and the Plant response rating ([7]; Preemergence, 250 g ai/ha) was 100. For the same compound, the plant injury at 62 g/ha (corn (Zea mays); post-emergence, Postemergence) was 20%, the plant injury at 125 g/ha (corn (Zea mays); post-emergence, Postemergence) was 20% and the plant injury at 250 g/ha (corn (Zea mays); post-emergence, Postemergence) was 20%. It also gave a plant injury at 31 g/ha (corn (Zea mays); [12]) of 35%, a plant injury at 62 g/ha (corn (Zea mays); pre-emergence, Preemergence) of 55% and a plant injury at 125 g/ha (corn (Zea mays); pre-emergence, Preemergence) of 75%. It also gave a plant injury at 250 g/ha (corn (Zea mays); pre-emergence, Preemergence) of 75%, a pest or weed control at 31 g/ha ([8]; post-emergence, Postemergence) of 5% and a pest or weed control at 62 g/ha ([8]; post-emergence, Postemergence) of 5%. It also gave a pest or weed control at 125 g/ha ([8]; post-emergence, Postemergence) of 10%, a pest or weed control at 250 g/ha ([8]; post-emergence, Postemergence) of 15% and a pest or weed control at 31 g/ha ([8]; pre-emergence, Preemergence) of 10%. The pest or weed control at 62 g/ha ([8]; pre-emergence, Preemergence) was 45%, the pest or weed control at 125 g/ha ([8]; pre-emergence, Preemergence) was 90% and the pest or weed control at 250 g/ha ([8]; pre-emergence, Preemergence) was 90%. It also gave a pest or weed control at 62 g/ha ([9]; post-emergence, Postemergence) of 55%, a pest or weed control at 125 g/ha ([9]; post-emergence, Postemergence) of 60% and a pest or weed control at 250 g/ha ([9]; post-emergence, Postemergence) of 60%. The pest or weed control at 31 g/ha [9, 12] was 100%, the pest or weed control at 62 g/ha ([9]; pre-emergence, Preemergence) was 100% and the pest or weed control at 125 g/ha ([9]; pre-emergence, Preemergence) was 100%. For the same compound, the pest or weed control at 250 g/ha ([9]; pre-emergence, Preemergence) was 100%, the Plant response rating ([10]; Postemergence, 31 g ai/ha) was 55 and the Plant response rating ([10]; Postemergence, 62 g ai/ha) was 70. The Plant response rating ([10]; Postemergence, 125 g ai/ha) was 75, the Plant response rating ([10]; Postemergence, 250 g ai/ha) was 80 and the Plant response rating ([10]; Preemergence, 31 g ai/ha) was 100. For the same compound, the Plant response rating ([10]; Preemergence, 62 g ai/ha) was 100, the Plant response rating ([10]; Preemergence, 125 g ai/ha) was 100 and the Plant response rating ([10]; Preemergence, 250 g ai/ha) was 100. For the same compound, the pest or weed control at 31 g/ha ([11]; post-emergence, Postemergence) was 5%, the pest or weed control at 62 g/ha ([11]; post-emergence, Postemergence) was 5% and the pest or weed control at 125 g/ha ([11]; post-emergence, Postemergence) was 10%. It also gave a pest or weed control at 250 g/ha ([11]; post-emergence, Postemergence) of 10%, a pest or weed control at 31 g/ha ([11]; pre-emergence, Preemergence) of 65% and a pest or weed control at 62 g/ha ([11]; pre-emergence, Preemergence) of 70%. It also gave a pest or weed control at 125 g/ha ([11]; pre-emergence, Preemergence) of 80% and a pest or weed control at 250 g/ha ([11]; pre-emergence, Preemergence) of 90%.
